{
  "source": "patent US20080009534A1",
  "about": "“S[…] DERIVATIVES USEFUL AS AN[…] A[…] AND METHOD” (Bristol-Myers Squibb Company, priority 2006, published 2008)",
  "key": {"[1]": {"biological_target": "T1, human PPARα receptor (Homo sapiens, UniProt Q07869)", "T1 construct": "transiently transfecting GAL4-hPPARα-LBD or GAL4-hPPARγ-LBD constructs; expressed in transfected cells; host or cells: HEK293 cells stably expressing 5×GAL4RE-Luciferase", "T1 sequence (Q07869 239-466 limits assumed)": "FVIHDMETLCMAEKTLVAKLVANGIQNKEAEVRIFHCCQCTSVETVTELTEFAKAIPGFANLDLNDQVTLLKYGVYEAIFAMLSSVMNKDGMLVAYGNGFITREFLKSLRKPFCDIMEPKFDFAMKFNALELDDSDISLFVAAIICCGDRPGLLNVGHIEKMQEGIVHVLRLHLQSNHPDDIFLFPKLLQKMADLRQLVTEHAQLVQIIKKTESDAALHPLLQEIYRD", "assay": "In vitro PPAR agonist functional assay, GAL4-hPPARα-LBD transactivation in HEK293 cells (luciferase)", "format": "cell-based", "details": "for EC50: GAL4-hPPARα-LBD in HEK293 cells, half-maximal fold induction; for Emax at 1 µM: HEK293, activity at 1 μM relative to GW2331 at 1 μM, read-out: PPARα % efficacy (intrinsic activity)", "experimental": "(§1) In vitro PPAR agonist functional assays were performed by transiently transfecting GAL4-hPPARα-LBD or GAL4-hPPARγ-LBD constructs respectively into HEK293 (human embryonic kidney) cells stably expressing 5×GAL4RE-Luciferase. Data were normalized for efficacy at 1 μM to known agonists (BRL-49653 for hPPARγ and GW-233 1 for hPPARα). Agonist binding results in an increase in luciferase enzyme activity which can be monitored by measuring luminescence upon cell lysing and the addition of luciferin substrate. EC50 values (μM) for PPARα or γ agonist activity were calculated as the concentration of the test ligand (μM) required for the half-maximal fold induction of HEK293 cells. The “intrinsic activity” of a test ligand is defined as its activity at 1 μM (expressed as a percentage) relative to the activity of the primary standards (GW2331 for PPARα and BRL-49653/rosiglitazone for PPARγ respectively, both tested at 1 μM). […] The ratios of the PPARα:PPARγ EC50 values of compounds of formula I are between 1:2 and 2:1 in this functional assay."}, "[2]": {"biological_target": "T2, human PPARγ receptor (Homo sapiens, UniProt P37231)", "T2 construct": "transiently transfecting GAL4-hPPARα-LBD or GAL4-hPPARγ-LBD constructs; expressed in transfected cells; host or cells: HEK293 cells stably expressing 5×GAL4RE-Luciferase", "T2 sequence (P37231 238-503 limits assumed)": "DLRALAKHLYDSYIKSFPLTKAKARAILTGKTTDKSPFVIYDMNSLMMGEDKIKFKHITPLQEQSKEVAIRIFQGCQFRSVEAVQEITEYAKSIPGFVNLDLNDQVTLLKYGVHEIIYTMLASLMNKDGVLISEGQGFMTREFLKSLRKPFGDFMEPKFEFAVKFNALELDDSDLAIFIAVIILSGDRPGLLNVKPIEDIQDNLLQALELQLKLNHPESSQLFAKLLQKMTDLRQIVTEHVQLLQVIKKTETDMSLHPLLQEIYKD", "assay": "In vitro PPAR agonist functional assay, GAL4-hPPARγ-LBD transactivation in HEK293 cells (luciferase)", "format": "cell-based", "details": "for EC50: GAL4-hPPARγ-LBD in HEK293 cells, half-maximal fold induction; for Emax at 1 µM: HEK293, activity at 1 μM relative to BRL-49653/rosiglitazone at 1 μM, read-out: PPARγ % efficacy (intrinsic activity)", "experimental": "as §1"}, "[3]": {"system": "db/db mice", "assay": "db/db mouse model, plasma glucose and triglycerides after 14 days of oral dosing", "format": "in vivo", "details": "female db/db mice, 10 mg/kg orally once daily for 14 days, fasted plasma on day 15", "experimental": "8 week old female db/db mice were dosed orally once daily for 14 days at 10 mg/kg with the Example 1a-1c compounds using a vehicle comprised of 5% 1-methyl-pyrrolidinone, 20% polyethylene glycol (PEG400) and 75% 20 mM dibasic sodium phosphate. Plasma samples were obtained from mice fasted overnight (18 hours after last administration of compound) on day 15. The plasma glucose and triglycerides levels were determined and the percentage reductions in both parameters of drug-treated animal relative to vehicle-treated animals are shown in the table below.\nIt is known by one skilled in the art that the compounds of the present invention normalize plasma glucose levels and decrease plasma triglycerides at doses ≧10 mg/kg in rodent models of type 2 diabetes (e.g. the db/db mouse). The typical administration of said compounds is expected to be between 0.1 to 2,000 mg/day in the clinical setting, and is preferably between 0.5 to 100 mg/day. (Reference for db/db mouse as an in vivo rodent model for antidiabetic efficacy: T. Harrity et al, Diabetes, 2006, 55, 240-248)."}},
  "data": [
    {"smiles": "Cc1ccc(OC(=O)N(CC(=O)O)[C@@H](C)c2ccc(OCc3nc(-c4ccccc4)oc3C)cc2)cc1F", "note": "[Compound 1a]", "values": [
      {"measurement": "EC50", "setting": "[1]", "result": "6 ± 1", "unit": "nM"},
      {"measurement": "Emax at 1 µM", "setting": "[1]", "result": 92, "unit": "%"},
      {"measurement": "EC50", "setting": "[2]", "result": "3 ± 1", "unit": "nM"},
      {"measurement": "Emax at 1 µM", "setting": "[2]", "result": 128, "unit": "%"},
      {"measurement": "% Reduction in Plasma Glucose vs Vehicle-control group", "setting": "[3]", "result": "−45", "unit": "%"},
      {"measurement": "% Reduction in Plasma Triglycerides vs Vehicle-control group", "setting": "[3]", "result": "−45", "unit": "%"},
      {"measurement": "melting point", "result": 152.6, "unit": "°C"}
    ]},
    {"smiles": "COc1cccc(OC(=O)N(CC(=O)O)[C@@H](C)c2ccc(OCc3nc(-c4ccc(C)cc4)oc3C)cc2)c1", "note": "[Compound 1c]", "values": [
      {"measurement": "EC50", "setting": "[1]", "result": "6 ± 2", "unit": "nM"},
      {"measurement": "Emax at 1 µM", "setting": "[1]", "result": 82, "unit": "%"},
      {"measurement": "EC50", "setting": "[2]", "result": "5 ± 2", "unit": "nM"},
      {"measurement": "Emax at 1 µM", "setting": "[2]", "result": 124, "unit": "%"},
      {"measurement": "% Reduction in Plasma Glucose vs Vehicle-control group", "setting": "[3]", "result": "−34", "unit": "%"},
      {"measurement": "% Reduction in Plasma Triglycerides vs Vehicle-control group", "setting": "[3]", "result": "−61", "unit": "%"}
    ]},
    {"smiles": "Cc1cc(OC(=O)N(CC(=O)O)[C@@H](C)c2ccc(OCc3nc(-c4ccccc4)oc3C)cc2)ccc1F", "note": "[Compound 1b]", "values": [
      {"measurement": "EC50", "setting": "[1]", "result": "8 ± 2", "unit": "nM"},
      {"measurement": "Emax at 1 µM", "setting": "[1]", "result": 95, "unit": "%"},
      {"measurement": "EC50", "setting": "[2]", "result": "4 ± 2", "unit": "nM"},
      {"measurement": "Emax at 1 µM", "setting": "[2]", "result": 126, "unit": "%"},
      {"measurement": "% Reduction in Plasma Glucose vs Vehicle-control group", "setting": "[3]", "result": "−34", "unit": "%"},
      {"measurement": "% Reduction in Plasma Triglycerides vs Vehicle-control group", "setting": "[3]", "result": "−50", "unit": "%"}
    ]}
  ]
}
